Several values for one entry are separate records, joined by “and”; a condition that tells them apart may be missing. Equal values may be shown once. Results filed as inconclusive are left out.
Tested on: mice, ADJ-PC-20 plasma cell tumor sc, T/C %
Assay: NCI In Vivo Anticancer Drug Screen. Data for tumor model ADJ-PC-20 Plasma Cell (subcutaneous) in unknown mice
Details: endpoint: mean tumor weight, higher = larger tumour
Protocol: The antitumor activity of compounds was measured in mice bearing transplantable tumors. Survival or tumor size were measured and the results are expressed as the measurement made in the treated group (T) divided by the measurement made in the vehicle treated control group (C). The tumor model used in this assay is ADJ-PC-20 Plasma Cell (subcutaneous) in unknown mice

[1] = dose: 62.5 mg/kg/injection, schedule: Q01DX010 (ip), vehicle: carboxymethylcellulose (CMC)
[2] = dose: 250.0 mg/kg/injection, schedule: Q01DX010 (ip), vehicle: carboxymethylcellulose (CMC)
[3] = dose: 10.0 mg/kg/injection, schedule: Q01DX010 (ip), vehicle: carboxymethylcellulose (CMC)
[4] = dose: 4.0 mg/kg/injection, schedule: Q01DX010 (ip), vehicle: carboxymethylcellulose (CMC)
[5] = dose: 8.0 mg/kg/injection, schedule: Q01DX010 (ip), vehicle: carboxymethylcellulose (CMC)
[6] = dose: 25.0 mg/kg/injection, schedule: Q01DX010 (ip), vehicle: water
[7] = dose: 25.0 mg/kg/injection, schedule: Q01DX010 (ip), vehicle: carboxymethylcellulose (CMC)
[8] = dose: 50.0 mg/kg/injection, schedule: Q01DX010 (ip), vehicle: carboxymethylcellulose (CMC)
[9] = dose: 12.5 mg/kg/injection, schedule: Q01DX010 (ip), vehicle: carboxymethylcellulose (CMC)
[10] = dose: 0.8 mg/kg/injection, schedule: Q01DX010 (ip), vehicle: carboxymethylcellulose (CMC)
[11] = dose: 1.6 mg/kg/injection, schedule: Q01DX010 (ip), vehicle: carboxymethylcellulose (CMC)
[12] = dose: 3.1 mg/kg/injection, schedule: Q01DX010 (ip), vehicle: carboxymethylcellulose (CMC)
[13] = dose: 6.3 mg/kg/injection, schedule: Q01DX010 (ip), vehicle: carboxymethylcellulose (CMC)
[14] = dose: 125.0 mg/kg/injection, schedule: Q01DX010 (sc), vehicle: steriod suspending solution

CN(N=O)C(=O)NC(C=O)C(O)C(O)C(O)CO (stereo not drawn)
T/C (dose: 50.0 mg/kg/injection, schedule: Q01DX010 (ip), vehicle: saline): 68 % of control

O=c1[nH]c(=O)n(C2CC(O)C(CO)O2)cc1I (stereo not drawn)
T/C (dose: 31.25 mg/kg/injection, schedule: Q01DX010 (ip), vehicle: carboxymethylcellulose (CMC)): 49 % of control
T/C [1]: 77 % of control
T/C (dose: 125.0 mg/kg/injection, schedule: Q01DX010 (ip), vehicle: carboxymethylcellulose (CMC)): 32 % of control
T/C [2]: 11 % of control

N=C(N)SCc1c2ccccc2c(CSC(=N)N)c2ccccc12
T/C [3]: 119 % of control
T/C (dose: 20.0 mg/kg/injection, schedule: Q01DX010 (ip), vehicle: carboxymethylcellulose (CMC)): 55 % of control

CCCSc1ncnc2nc[nH]c12
T/C [4]: 81 % of control
T/C [5]: 43 % of control
T/C (dose: 16.0 mg/kg/injection, schedule: Q01DX010 (ip), vehicle: carboxymethylcellulose (CMC)): 28 % of control

N#Cc1cn(C2OC(CO)C(O)C2O)c2ncnc(N)c12 (stereo not drawn)
T/C (dose: 0.12 mg/kg/injection, schedule: Q01DX010 (ip), vehicle: carboxymethylcellulose (CMC)): 47 % of control

[I][Hg][CH2]C1COC([CH2][Hg][I])CO1 (stereo not drawn)
T/C (dose: 3.75 mg/kg/injection, schedule: Q01DX010 (ip), vehicle: carboxymethylcellulose (CMC)): 87 % of control
T/C (dose: 7.5 mg/kg/injection, schedule: Q01DX010 (ip), vehicle: carboxymethylcellulose (CMC)): 111 % of control
T/C (dose: 15.0 mg/kg/injection, schedule: Q01DX010 (ip), vehicle: carboxymethylcellulose (CMC)): 104 % of control
T/C (dose: 30.0 mg/kg/injection, schedule: Q01DX010 (ip), vehicle: carboxymethylcellulose (CMC)): 115 % of control

CN(C)CC(=O)c1ccc(O)c(O)c1
T/C (dose: 62.5 mg/kg/injection, schedule: Q01DX010 (ip), vehicle: saline): 99 % of control
T/C (dose: 250.0 mg/kg/injection, schedule: Q01DX010 (ip), vehicle: saline): 77 % of control
T/C (dose: 500.0 mg/kg/injection, schedule: Q01DX010 (ip), vehicle: saline): 72 % of control and 86 % of control

O=NN(CCCl)C(=O)NCCCl
T/C (dose: 0.8 mg/kg/injection, schedule: Q01DX010 (ip), vehicle: saline): 102 % of control
T/C (dose: 1.6 mg/kg/injection, schedule: Q01DX010 (ip), vehicle: saline): 87 % of control
T/C (dose: 6.2 mg/kg/injection, schedule: Q01DX010 (ip), vehicle: saline): 48 % of control

CN(C)c1ccc(/C=C\c2ccnc3ccccc23)cc1
T/C (dose: 6.3 mg/kg/injection, schedule: Q01DX010 (ip), vehicle: water): 70 % of control
T/C (dose: 12.5 mg/kg/injection, schedule: Q01DX010 (ip), vehicle: water): 52 % of control
T/C [6]: 48 % of control
T/C (dose: 25.0 mg/kg/injection, schedule: Q01DX011 (ip), vehicle: water): 92 % of control

C1CN1c1nc(N2CC2)nc(N2CC2)n1
T/C (dose: 0.01 mg/kg/injection, schedule: Q01DX010 (ip), vehicle: saline): 38 % of control
T/C (dose: 1.9 micrograms/kg/injection, schedule: Q01DX010 (ip), vehicle: saline): 170 % of control
T/C (dose: 7.8 micrograms/kg/injection, schedule: Q01DX010 (ip), vehicle: saline): 100 % of control
T/C (dose: 8.0 micrograms/kg/injection, schedule: Q01DX010 (ip), vehicle: saline): 101 % of control
T/C (dose: 15.0 micrograms/kg/injection, schedule: Q01DX010 (ip), vehicle: saline): 99 % of control
T/C (dose: 31.0 micrograms/kg/injection, schedule: Q01DX010 (ip), vehicle: saline): 105 % of control
T/C (dose: 31.2 micrograms/kg/injection, schedule: Q01DX010 (ip), vehicle: saline): 37 % of control
T/C (dose: 63.0 micrograms/kg/injection, schedule: Q01DX010 (ip), vehicle: saline): 66 % of control

OCC1OC(n2cnc3c(=S)nc[nH]c32)C(O)C1O (stereo not drawn)
T/C (dose: 0.5 mg/kg/injection, schedule: Q01DX010 (ip), vehicle: carboxymethylcellulose (CMC)): 87 % of control
T/C (dose: 1.0 mg/kg/injection, schedule: Q01DX010 (ip), vehicle: carboxymethylcellulose (CMC)): 51 % of control
T/C (dose: 2.0 mg/kg/injection, schedule: Q01DX010 (ip), vehicle: carboxymethylcellulose (CMC)): 25 % of control
T/C [4]: 2 % of control
T/C [5]: 22 % of control

O=c1[nH]c(=O)n(C2CC(O)C(CO)O2)cc1F (stereo not drawn)
T/C [7]: 67 % of control
T/C [8]: 21 % of control
T/C (dose: 100.0 mg/kg/injection, schedule: Q01DX010 (ip), vehicle: carboxymethylcellulose (CMC)): 36 % of control

C[C@]12C=CC(=O)C=C1CC[C@@H]1[C@@H]2C(=O)C[C@@]2(C)[C@H]1CC[C@]2(O)C(=O)CO
T/C (dose: 6.3 mg/kg/injection, schedule: Q01DX010 (sc), vehicle: steriod suspending solution): 107 % of control
T/C (dose: 12.5 mg/kg/injection, schedule: Q01DX010 (sc), vehicle: steriod suspending solution): 51 % of control
T/C (dose: 100.0 mg/kg/injection, schedule: Q01DX010 (sc), vehicle: steriod suspending solution): 14 % of control

N#[N+]c1cnc([O-])[nH]c1=O
T/C (dose: 5.0 mg/kg/injection, schedule: Q01DX010 (ip), vehicle: carboxymethylcellulose (CMC)): 99 % of control
T/C [3]: 90 % of control

O=C(O)CCCc1ccc(N(CCCl)CCCl)cc1
T/C (dose: 6.25 mg/kg/injection, schedule: Q01DX010 (ip), vehicle: carboxymethylcellulose (CMC)): 120 % of control
T/C [9]: 58 % of control

O=C(Nc1ccc(NC2=NCCN2)cc1)c1ccc(C(=O)Nc2ccc(NC3=NCCN3)cc2)cc1
T/C (dose: 4.0 mg/kg/injection, schedule: Q01DX010 (ip), vehicle: saline): 98 % of control
T/C (dose: 8.0 mg/kg/injection, schedule: Q01DX010 (ip), vehicle: saline): 69 % of control

C[C@]12CCC(=O)C=C1CC[C@H]1[C@@H]3CC[C@](O)(C(=O)CO)[C@@]3(C)C[C@H](O)[C@@]12F
T/C (dose: 2.5 mg/kg/injection, schedule: Q01DX010 (sc), vehicle: steriod suspending solution): 62 % of control
T/C (dose: 5.0 mg/kg/injection, schedule: Q01DX010 (sc), vehicle: steriod suspending solution): 43 % of control
T/C (dose: 10.0 mg/kg/injection, schedule: Q01DX010 (sc), vehicle: steriod suspending solution): 33 % of control

CCCCn1cnc2c(=S)nc[nH]c21
T/C [10]: 74 % of control
T/C [11]: 68 % of control
T/C [12]: 52 % of control
T/C [13]: 41 % of control
T/C [9]: 15 % of control
T/C [7]: 1 % of control

CCC(=O)O[C@H]1CC[C@H]2[C@@H]3CCC4=CC(=O)CC[C@]4(C)[C@H]3CC[C@]12C
T/C [14]: 79 % of control
T/C (dose: 250.0 mg/kg/injection, schedule: Q01DX010 (sc), vehicle: steriod suspending solution): 154 % of control
T/C (dose: 500.0 mg/kg/injection, schedule: Q01DX010 (sc), vehicle: steriod suspending solution): 76 % of control
T/C (dose: 1000.0 mg/kg/injection, schedule: Q01DX010 (sc), vehicle: steriod suspending solution): 108 % of control
T/C (dose: 2000.0 mg/kg/injection, schedule: Q01DX010 (sc), vehicle: steriod suspending solution): 80 % of control

CN(C)c1nc(N(C)C)nc(N(C)C)n1
T/C [1]: 97 % of control
T/C [2]: 58 % of control

COS(C)(=O)=O
T/C [6]: 110 % of control
T/C (dose: 50.0 mg/kg/injection, schedule: Q01DX010 (ip), vehicle: water): 82 % of control
T/C (dose: 100.0 mg/kg/injection, schedule: Q01DX010 (ip), vehicle: water): 42 % of control

C[C@]12CCC(=O)C=C1CC[C@@H]1[C@@H]2C(=O)C[C@@]2(C)[C@H]1CC[C@]2(O)C(=O)CO
T/C (dose: 31.25 mg/kg/injection, schedule: Q01DX010 (sc), vehicle: steriod suspending solution): 7 % of control
T/C [14]: 11 % of control

CS(=O)(=O)OCCCCOS(C)(=O)=O
T/C (dose: 6.25 mg/kg/injection, schedule: Q01DX010 (ip), vehicle: methylcellulose (MC)): 93 % of control
T/C (dose: 12.5 mg/kg/injection, schedule: Q01DX010 (ip), vehicle: methylcellulose (MC)): 66 % of control
T/C (dose: 25.0 mg/kg/injection, schedule: Q01DX010 (ip), vehicle: methylcellulose (MC)): 71 % of control and 72 % of control
T/C (dose: 50.0 mg/kg/injection, schedule: Q01DX010 (ip), vehicle: methylcellulose (MC)): 42 % of control

C[N+](C)(C)c1ncnc2nc[nH]c12
T/C [10]: 70 % of control
T/C [11]: 59 % of control
T/C [12]: 69 % of control
T/C [13]: 70 % of control
T/C [9]: 36 % of control
T/C [7]: 52 % of control
T/C [8]: 6 % of control

O=C1C(NC(=O)C2CCCCC2)=C(N2CC2)C(=O)C(NC(=O)C2CCCCC2)=C1N1CC1
T/C (dose: 37.5 mg/kg/injection, schedule: Q01DX010 (ip), vehicle: carboxymethylcellulose (CMC)): 102 % of control and 115 % of control
